This note sets out measurements from patent US9073851B2, “Compositions and methods for treating cancer” (Board of Regents, The University of Texas System, priority 2011, dated 2015).

One data set deals with 5-HT1B/1D receptor. Briefly: cAMP levels. The class given is cell-based.
The subject of a further data set is MCF10A. Briefly: MTS cell viability assay on normal breast epithelium. The class given is cell-based, human. The following applies: at IC50 to IC90 doses in breast cancer cells (MCF7). The text has this:
(§1) (aka proliferation assay, in this case MTS assay was used. MTS, MTT, XTT all similar assays often used as cell viability/toxicity assay). Cell viability in response to compounds such as 5NT and KD06 was studied with a tetrazolium/formazan based assay (MTS, Celltiter 96 aqueous one solution cell proliferation assay, Promega, WI) [Akar U, Chaves-Reyez A, Barria g Tari A, Sanguino A, Kondo Y, Kondo S, Arun B, Lopez-Berestein G, Ozpolat B: Silencing of Bcl-2 expression by small interfering RNA induces autophagic cell death in MCF-7 breast cancer cells. Autophagy 2008, 4:669-679, Ozpolat 2007 MCR]. Cells were seeded in 96 wells plates at a density of 1.5 to 3.0×10^3 cells per well in 100 μl of medium. Next day the medium was removed and cells were treated with the drug in 100 μl of medium for 72 hours. Plates were read at 490 nm wavelength in an Elisa plate reader (Kinetic Microplate Reader, Molecular Devices Corporation, Sunnyvale, Calif.).

The test system of data set [1] is 5-HT1B or 5-HT1D receptor. In words: Effect on cell proliferation after siRNA knockdown of 5-HT1B or 5-HT1D receptor. The format is cell-based.
The next data set deals with breast cancer cells. Briefly: Cell viability assay, breast cancer cell panel or cell line not stated. The format is cell-based, human.
Source text: as §1

In data set [2] the test system is MDA-MB-231 cells. In words: Clonogenic survival assay. The format is cell-based, human. The note with it: paclitaxel 2 nM + CaMK-III siRNA. As for the experimental part: (§2) To study the effect of CaMK-III growth of ER(−) and ER(+) breast cancer cells we performed a clonogenic assay, which is based on the ability of a single cell to grow into a colony (Franken N A, et al. Nat Protoc 2006: 1:2315-9), using MDA-MB-231 and MCF-7 cells, respectively. Cells were transfected with either CaMK-III or control siRNA (50 nM) […] over a period of two weeks.
(§3) This assay is an in vitro cell survival assay based on the ability of a single cell to grow into a colony. Briefly, cells (500 cells/well) were transfected with control siRNA or CaMK-III siRNA every week and grown for 2 to 3 weeks. Cells were stained with crystal violet and colonies were counted. Each experiment was repeated twice.
This assay is an in vitro cell survival assay based on the ability of a single cell to grow into a colony. Briefly, cells (500 cells/well) were transfected with different siRNA as described above and at 48 h post-transfection, cells were trypsinized and seeded into 6-well plates in the medium (500 cells/mL). Cells were transfected with control siRNA or CaMK-III siRNA every week and grown for 2 to 3 weeks. Cells were stained with crystal violet and colonies cells were counted. Each group was assayed in triplicate dishes, and each experiment was repeated twice.

Data set [3] relates to MDA-MB-231 cells. Briefly: Annexin V staining and FACS analysis of apoptosis. The format is cell-based, human. As to the method:
To investigate whether inhibition of CaMK-III sensitizes drug (doxorubicin)-resistant MCF7/DoxR and MDA-MB-231 cells to chemotherapy, cells were treated with either CaMK-III (50 nM) or control siRNA (50 nM) for 24 hours and then with doxorubicin (ED50 dose) for 48 hours. The ED50 of doxorubicin was determined from a dose-escalation study in a proliferation assay. […] To determine the percent of cells undergoing apoptosis in response to doxorubicin alone and in combination with CaMK-III siRNA was detected by Annexin V staining and FACS analysis.
(§4) Apoptosis was assessed by an Annexin V assay, monitoring PARP and caspase 9 cleavage by Western blot. To provide a comparative assay of apoptosis by Annexin V labeling, tumor cells (1×10^6) treated with CaMK-III siRNA or control siRNA for 24 to 96 hours were harvested and washed with PBS. Cells were resuspended in binding buffer and stained with Annexin V and propidium iodide (PI) according to the manufacturer's protocol (BD Pharmingen Annexin V kit, San Diego, Calif.). Positive cells were detected and quantified by FACS analysis.

Data set [4] has as its system ER+ MCF-7 breast cancer cells. Briefly: Cell proliferation on serotonin treatment (cell counting). The class given is cell-based, human.
A further data set concerns MCF7 cells. Briefly: MTS cell viability/proliferation assay. The format is cell-based, human.
Source text: (§5) Viable and dead cells were detected by the trypan blue exclusion assay, where viable cells (non-stained) with intact membrane are able to exclude the dye, while dead cells take up the coloring blue agent from the media. To quantitatively assess the viability and/or proliferation of cells a MTS assay was used, which incorporates a redox indicator that changes color in response to metabolic activity. To study cell viability in response to CaMK-III siRNA or control siRNA and plasmid encoding CaMK-III or empty plasmid transfection cells were seeded in 96-well plates at a density of 3×10^3 cells per well in 100 μl of medium. Next day the medium was removed and cells were transfected with siRNA at different concentrations in 100 μl of medium plus transfection mix. Two days after transfection, the medium was removed and replaced by 180 μl of medium plus 20 μl of MTS and the cells were incubated under normal conditions until the color changed. Plates were read at dual wavelengths (570-595 nm) in an Elisa plate reader (Kinetic Microplate Reader, Molecular Devices Corporation, Sunnyvale, Calif.).
as §1

The test system of another data set is MCF7 breast cancer cells. In words: Acridine orange staining of acidic vesicular organelles (autophagy), FACS. The class given is cell-based, human. The following applies: for percentage of acridine orange positive cells: flow cytometry, control untreated cells 2%. An excerpt: To determine the role of serotonin 5-HT1B receptor in cell survival and the mechanism of growth inhibition induced by HT1B inhibitors we investigated cell death in breast cancer cells. When 5-HT1B was inhibited by either SB224289 or SB216641 we detected marked induction of autophagy (FIG. 28A) as detected by acridine orange staining, apoptosis by Annexin V and necrosis by propidium iodide (PI) staining and FACS analysis (FIG. 28B) in MCF7 breast cancer cells. Induction of acidic vacuoles by acridine orange staining was also observed in MDA-MB231 cells after SB224289 treatment for 72 hours (p<0.05) (FIG. 28C).
(§6) To detect and quantify acidic vesicular organelles, we stained cells with acridine orange as described previously.^31 The number of acridine orange-positive cells was determined by fluorescence-activated cell sorting (FACS) analysis. Cell morphology was examined using fluorescence microscopy (Nikon, Melville, N.Y.) with the cells remaining in their culture flasks.

Another data set deals with ERK (p42/p44) and LC3-II. In words: Western blot of p-ERK and LC3-II after 5-HT1B antagonists. The class given is cell-based, human. The following applies: for phosphorylation of ERK (p42/p44): Western blot. As to the method:
After treatment the cells were trypsinized and collected by centrifugation, and whole-cell lysates were obtained using a lysis buffer as described previously [Akar U, et al. Mol Cancer Res 2007: 5:241-249]. Total protein concentration was determined using a DC protein assay kit (Bio-Rad, Hercules, Calif.). Aliquots containing […] of total protein from each sample were subjected to sodium dodecyl sulfate-polyacrylamide gel electrophoresis (SDS-PAGE) with a 4-20% gradient and electrotransferred to nitrocellulose membranes. The membranes were blocked with 5% dry milk in Tris-buffered saline-Tween 20 (TBST), probed with primary antibodies anti EREK1/2 or p-ERK1/2 (Cell signaling), polyclonal LC3 antibody (Novus biologicals, Littleton, Colo.). The antibodies were diluted in TBST containing 2.5% dry milk and incubated at 4 C overnight. After the membranes were washed with TBST, they were incubated with horseradish peroxidase-conjugated anti-rabbit or anti-mouse secondary antibody (Amersham Life Science, Cleveland, Ohio). Mouse anti-actin and donkey anti-mouse secondary antibodies (Sigma Chemical, St. Louis, Mo.) were used to monitor-actin expression to ensure equal loading of proteins. Chemiluminescent detection was performed with Chemi-glow detection reagents (Alpha Innotech, San Leandro, Calif.). The blots were visualized with a FluorChem 8900 imager and quantified by a densitometer using the Alpha Imager application program (Alpha Innotech, San Leandro, Calif.).

In a further data set the test system is MCF7/Dox resistant cells. In words: MTS cell viability/proliferation assay. The format is cell-based, human. The note with it: MTS assay.
Source text: as §5, §1

The conditions of data set [5]: mouse, in vivo.
For data set [6], the system named is MCF-7 cells. Briefly: Apoptosis / cell death in MCF-7 cells (Annexin V, FACS). The following applies: Annexin V, MCF cells. The class given is cell-based, human. As to the method: as §4
Data set [7] relates to MDA-MB-231 cells. Briefly: MTS cell viability/proliferation assay. The class given is cell-based, human. The following applies: MTS assay, MB-231.
Source text: Viable and dead cells were detected by the trypan blue exclusion assay, the viability and/or proliferation of cells a MTS assay was used [Akar U, et al. Autophagy 2008: 4:669-79].
as §5, with “Two days after transfection, the medium was removed and replaced by 180 μl of medium plus 20 μl of MTS and the cells were incubated under normal conditions until the color changed.” left out
(aka proliferation assay, in this case MTS assay was used. MTS, MTT, XTT all similar assays often used as cell viability/toxicity assay). […] Plates were read at 490 nm wavelength in an Elisa plate reader (Kinetic Microplate Reader, Molecular Devices Corporation, Sunnyvale, Calif.).

Another data set concerns MCF7 and MDA-MB231 cells. Briefly: Acridine orange autophagy assay with MEK inhibitor PD98059. The class given is cell-based, human. As for the experimental part:
as §6

Data set [8] has as its system MCF-7 cells. In words: Clonogenic survival assay. The class given is cell-based, human. The following applies: various concentrations over two weeks, vs untreated. As for the experimental part: as §2, §3
To study the effect of 5-HT1B on the survival and colony formation of breast cancer cells a clonogenic survival assay was performed using various concentrations of […] over a period of two weeks. This assay is based on the ability of a single cell to grow into a colony [Franken N A, et al. Nat Protoc 2006: 1:2315-2319]. […] Cell death and detachment as well as reduced cell number was observed.
This assay is an in vitro cell survival assay based on the ability of a single cell to grow into a colony. […] Cells were stained with crystal violet and colonies cells were counted. […]

In data set [9] the test system is STAT3, Bcl-2 and PI3K/Akt pathways. In words: Signaling pathways after SB-224289 in breast cancer cells. The class given is cell-based. The note with it: preliminary studies.

On to `CCCCCCCCCCCCOc1ccc2[nH]cc(CCN)c2c1.Cl` [KD06], for which, in the data set on 5-HT1B/1D receptor, the cAMP levels entry is recorded as “decrease cAMP levels”. For the same molecule, in the data set on MCF10A, the “toxicity against normal breast epithelium” value was “not toxic”. The “effect of compound after knockdown of 5-HT1B or 5-HT1D receptor” value in data set [1] is on record as “blunts the effect”. The “potency relative to 5-NT” value with breast cancer cells was “more potent than 5-NT”. In the data set on breast cancer cells (incl. MDA-468, BT20, MDa-MB231, SKBR3, MDA-MB435, T47D, ZR75.1), the “cell survival (O.D.) in a large panel of breast cancer cells” value is “effective against almost all breast cancer cell lines”.
In the case of `CC(=O)O[C@H]1C(=O)[C@@]2(C)[C@H]([C@H](OC(=O)c3ccccc3)[C@]3(O)C[C@H](OC(=O)[C@H](O)[C@@H](NC(=O)c4ccccc4)c4ccccc4)C(C)=C1C3(C)C)[C@]1(OC(C)=O)CO[C@@H]1C[C@@H]2O` [paclitaxel], the “inhibition of colony formation by paclitaxel with CaMK-III siRNA” value with MDA-MB-231 cells [2] is recorded as “enhances efficacy”.
In the case of `COc1cccc2c1C(=O)c1c(O)c3c(c(O)c1C2=O)C[C@@](O)(C(=O)CO)C[C@@H]3O[C@H]1C[C@H](N)[C@H](O)[C@H](C)O1` [doxorubicin], the “apoptosis induced by doxorubicin (Annexin V positive cells)” value in the data set on MDA-MB-231 cells [3] (doxorubicin alone, 48 h) is 5%; in the data set on MDA-MB-231 cells [3] (doxorubicin with CaMK-III siRNA), 55%.
Turning to `NCCc1c[nH]c2ccc(O)cc12` [Serotonin, 5-hydroxytryptamine], the cell proliferation entry in data set [4] was “induced proliferation”.
Regarding `COc1ccc(NC(=O)c2ccc(-c3ccc(-c4noc(C)n4)cc3C)cc2)cc1OCCN(C)C` [SB216641], the cell viability in the data set with MCF7 cells (antagonist alone) is listed as 31%; in the data set on MCF7 cells (with 3-MA, p<0.05), 71%. Moreover, the “percentage of acridine orange positive cells” value with MCF7 breast cancer cells is recorded as 17%. Besides, in the data set on ERK (p42/p44) and LC3-II, the “phosphorylation of ERK (p42/p44)” value was “induced phosphorylation of ERK (p42/p44)”.
On to `Cc1nc(-c2ccc(-c3ccc(C(=O)N4CCc5cc6c(cc54)C4(CCN(C)CC4)CO6)cc3)c(C)c2)no1` [SB224289], for which, in the data set on MCF7 cells (Homo sapiens, MCF7, MCF cells), the EC50 was determined as 4.4 µM. Also, the “inhibition of cell proliferation” value with MCF7 cells (MTS assay), in the data set on MCF7/Dox resistant cells and in the data set on MDA-MB-231 cells [7] was “dose-dependent inhibition” in each case. The cell viability in the data set on MCF7 cells (antagonist alone) worked out at 42%; with MCF7 cells (with 3-MA, p<0.05) it was 61%. Also, the incidence of autophagy in the data set with MCF7 breast cancer cells (antagonist alone) is listed as 22.4%; in the data set on MCF7 breast cancer cells (with 3-MA), 12%. The “percentage of acridine orange positive cells” value in the data set on MCF7 breast cancer cells was found to be 23%. In addition, the toxicity in mice result in data set [5] is “quite toxic in mice”. Also, in the data set with MCF-7 cells [6], the induction of apoptosis result is “induced apoptosis in a dose dependent manner”. Further, the “percent positive cells with autophagy” value in the data set with MCF7 and MDA-MB231 cells (antagonist alone) amounted to 29.2%; in the data set on MCF7 and MDA-MB231 cells (with ERK inhibitor (MEK inhibitor PD98059)), 18%. The colony formation result with MCF-7 cells [8] was “grew more slowly and produced fewer colonies”. The “LC3-II, marker of autophagy” value in the data set on ERK (p42/p44) and LC3-II (MCF7 and MCF7/Dox-R cells) was “induction of LC3-II”. Further, the “phosphorylation of ERK (p42/p44)” value in the data set on ERK (p42/p44) and LC3-II is listed as “induced phosphorylation of ERK (p42/p44)”. Moreover, the “STAT3, Bcl-2 and PI3K/Akt pathways” value in data set [9] is “inhibits the STAT3 and Bcl-2 pathways, as well as the PI3K/Akt pathway”.
